In PubChem BioAssay (NCI):
Several values for one entry are separate records, joined by “and”; a condition that tells them apart may be missing. Identical values can stand only once.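 Protocol summary: plate cells (96-well), add compound at 5 concentrations, incubate 48 h, interpolate endpoints linearly. GI50 = concentration required for 50% inhibition of growth. TGI: total growth inhibition.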

Key:
Test in all cases: NCI anticancer screen, dose series, 48 h
[1] = system: K-562 leukemia
[2] = system: ACHN renal
[3] = system: RPMI-8226 leukemia
[4] = system: T-47D breast
[5] = system: U251 CNS
[6] = system: CCRF-CEM leukemia
[7] = system: SK-MEL-2 melanoma
[8] = system: UO-31 renal
[9] = system: HOP-92 NSCLC
[10] = system: SK-MEL-5 melanoma

Structure (SMILES): C[n+]1ccc(-c2c3nc(c(-c4ccc5c(ccc[n+]5C)c4)c4ccc([nH]4)c(-c4cc[n+](C)cc4)c4nc(c(-c5ccc6c(ccc[n+]6C)c5)c5ccc2[nH]5)C=C4)C=C3)cc1
- GI50 [1]: 31.4 µM
- TGI [1]: > 50 µM
- GI50 [2]: 27.9 µM
- TGI [2]: > 50 µM
- GI50 [3]: > 50 µM
- TGI [3]: > 50 µM
- GI50 [4]: 12.4 µM
- TGI [4]: 48.7 µM
- GI50 [5]: 28.8 µM
- TGI [5]: > 50 µM
- GI50 [6]: > 50 µM
- TGI [6]: > 50 µM
- GI50 [7]: 22.4 µM
- TGI [7]: > 50 µM
- GI50 [8]: 19.9 µM
- TGI [8]: > 50 µM
- GI50 [9]: 25.1 µM
- TGI [9]: > 50 µM
- GI50 [10]: 17.6 µM
- TGI [10]: > 50 µM

Structure (SMILES): C=C1C(=O)OC2/C=C(\C)C3OC3/C=C(/C(=O)OC)C(OC(C)=O)C(OC(=O)C(C)(O)C(C)OC(C)=O)C12 (centres undefined)
- TGI [1]: 17.1 µM
- TGI [2]: 18.2 µM
- TGI [3]: 7.9 µM
- TGI [4]: 36.8 µM
- TGI [5]: 10.3 µM
- TGI [6]: 3.04 µM
- TGI [7]: 20.2 µM
- TGI [8]: 15 µM
- TGI [9]: 4.1 µM
- TGI [10]: 7.09 µM

Structure (SMILES): CC(=O)OCC1OC(n2c(-c3ccccc3)c(C)c(C)c(C#N)c2=S)C(OC(C)=O)C(OC(C)=O)C1OC(C)=O (centres undefined)
- GI50 [1]: 24.8 µM and > 100 µM
- TGI [1]: > 100 µM
- GI50 [2]: 26.8 µM and > 100 µM
- TGI [2]: > 100 µM
- TGI [4]: > 100 µM
- TGI [5]: 34.6 µM
- GI50 [6]: 49.2 µM and > 100 µM
- TGI [6]: > 100 µM
- GI50 [7]: 35.5 µM and 14.6 µM
- TGI [7]: > 50 µM and 41.3 µM
- GI50 [8]: > 50 µM and 12 µM
- TGI [8]: > 50 µM and 37.9 µM
- GI50 [9]: 0.0211 µM
- TGI [9]: 24 µM
- TGI [10]: > 100 µM

Structure (SMILES): CC([O-])C(=O)[O-].NCC1CCC1CN.[Pt+4] (centres undefined)
- GI50 [1]: > 10 µM
- TGI [1]: > 10 µM
- GI50 [2]: 6.19 µM
- TGI [2]: > 10 µM
- GI50 [3]: > 10 µM
- TGI [3]: > 10 µM
- GI50 [4]: > 10 µM
- TGI [4]: > 10 µM
- GI50 [5]: > 10 µM
- TGI [5]: > 10 µM
- GI50 [6]: 4.39 µM
- TGI [6]: > 10 µM
- GI50 [7]: > 10 µM
- TGI [7]: > 10 µM
- GI50 [9]: > 10 µM
- TGI [9]: > 10 µM
- GI50 [10]: 7.41 µM
- TGI [10]: > 10 µM

Structure (SMILES): CCCCCCCCCC(CCCC(O)CC(=O)O)OC1OC(COC2OC(C)C(O)C(O)C2O)C(O)C(O)C1OC1OC(CO)C(O)C(O)C1OC1OC(C)C(O)C(O)C1O (centres undefined)
- GI50 [1]: > 40 µM
- TGI [1]: > 40 µM
- GI50 [2]: > 40 µM
- TGI [2]: > 40 µM
- GI50 [3]: > 40 µM
- TGI [3]: > 40 µM
- GI50 [4]: > 40 µM
- TGI [4]: > 40 µM
- GI50 [5]: > 40 µM
- TGI [5]: > 40 µM
- GI50 [6]: > 40 µM
- TGI [6]: > 40 µM
- GI50 [8]: > 40 µM
- TGI [8]: > 40 µM
- GI50 [9]: > 40 µM
- TGI [9]: > 40 µM
- GI50 [10]: > 40 µM
- TGI [10]: > 40 µM

Structure (SMILES): O=C1c2cccnc2C(=O)c2c1c(C(=O)OCCN1CCOCC1)c1ccccn21
- GI50 [1]: 0.0198 µM
- GI50 [2]: < 0.01 µM
- TGI [2]: 11.5 µM
- GI50 [3]: 0.0914 µM
- TGI [3]: 4.65 µM
- GI50 [4]: 0.228 µM
- TGI [4]: 5.25 µM
- GI50 [5]: < 0.0104 µM
- TGI [5]: 0.767 µM
- GI50 [6]: 0.126 µM
- TGI [6]: 6.8 µM
- GI50 [7]: 0.0585 µM
- TGI [7]: 1.61 µM
- GI50 [8]: < 0.01 µM
- GI50 [9]: 0.0262 µM
- TGI [9]: 0.319 µM
- GI50 [10]: 0.0189 µM
- TGI [10]: 0.135 µM

Structure (SMILES): CCN1CCN(C(=O)[C@]23CCC(C)(C)C[C@@H]2C2=CC[C@@H]4[C@@]5(C)C/C(=C/c6cccnc6)C(=O)C(C)(C)[C@@H]5CC[C@@]4(C)[C@]2(C)CC3)CC1
- GI50 [1]: 1.43 µM
- TGI [1]: > 100 µM
- GI50 [2]: 2.6 µM
- TGI [2]: 10.5 µM
- GI50 [3]: 0.959 µM
- TGI [3]: 5.13 µM
- GI50 [4]: 2.61 µM
- TGI [4]: 13.7 µM
- GI50 [5]: 1.58 µM
- TGI [5]: 3.11 µM
- GI50 [6]: 2.1 µM
- TGI [6]: 9.02 µM
- GI50 [7]: 1.93 µM
- TGI [7]: 3.96 µM
- GI50 [8]: 1.35 µM
- TGI [8]: 2.67 µM
- GI50 [9]: 1.06 µM
- TGI [9]: 3.26 µM
- GI50 [10]: 1.63 µM
- TGI [10]: 3 µM

Structure (SMILES): COc1ccc(CNc2nc(NCc3ccc(OC)cc3)c3n[nH]c(C(C)C)c3n2)cc1
- GI50 [1]: 3.13 µM
- TGI [1]: 11.7 µM
- GI50 [2]: 7.6 µM
- TGI [2]: 20.7 µM
- GI50 [3]: 3.27 µM
- TGI [3]: 12.5 µM
- GI50 [4]: 3.38 µM
- TGI [4]: 42.6 µM
- GI50 [5]: 4.22 µM
- TGI [5]: 21.1 µM
- GI50 [6]: 3.73 µM
- TGI [6]: 15.4 µM
- GI50 [7]: 1.98 µM
- TGI [7]: 4.93 µM
- GI50 [8]: 4.81 µM
- TGI [8]: 15 µM
- GI50 [9]: 9.48 µM
- TGI [9]: 37.4 µM
- GI50 [10]: 1.57 µM
- TGI [10]: 3.01 µM

Structure (SMILES): C/C(=N\NC(=O)c1ccncc1)c1ccc(O)cc1O
- GI50 [1]: 6.62 µM
- TGI [1]: > 100 µM
- GI50 [2]: 4.48 µM
- TGI [2]: > 100 µM
- GI50 [3]: 31.5 µM
- TGI [3]: > 100 µM
- GI50 [4]: 11.4 µM
- TGI [4]: > 100 µM
- GI50 [5]: 1.59 µM
- TGI [5]: > 100 µM
- GI50 [6]: 2.08 µM
- TGI [6]: > 100 µM
- GI50 [7]: > 100 µM
- TGI [7]: > 100 µM
- GI50 [8]: 2.82 µM
- TGI [8]: 20.5 µM
- GI50 [9]: 17.1 µM
- TGI [9]: > 100 µM
- GI50 [10]: 3.47 µM
- TGI [10]: 29.6 µM

Structure (SMILES): Cc1ccc(NC(=O)c2nc(S(C)=O)oc2-c2ccc(F)cc2)cc1Nc1nccc(-c2cccnc2)n1 (centres undefined)
- GI50 [1]: 0.454 µM
- TGI [1]: 3.3 µM
- GI50 [2]: 1.69 µM
- TGI [2]: 3.1 µM
- GI50 [3]: 2.43 µM
- TGI [3]: 6.5 µM
- GI50 [4]: 1.73 µM
- TGI [4]: 3.68 µM
- GI50 [5]: 1.98 µM
- TGI [5]: 3.57 µM
- GI50 [6]: 1.58 µM
- TGI [6]: 6.83 µM
- GI50 [7]: 1.78 µM
- TGI [7]: 4.03 µM
- GI50 [8]: 1.73 µM
- TGI [8]: 3.14 µM
- GI50 [9]: 2.13 µM
- TGI [9]: 4.69 µM
- GI50 [10]: 1.84 µM
- TGI [10]: 3.59 µM

Structure (SMILES): Nc1c(C(=O)Nc2ccccc2)sc2nc3c(cc12)CCCC3
- GI50 [1]: 0.436 µM
- TGI [1]: > 100 µM
- GI50 [2]: 1.61 µM
- TGI [2]: > 100 µM
- GI50 [3]: 0.681 µM
- TGI [3]: 11.5 µM
- GI50 [4]: 0.918 µM
- TGI [4]: > 63.2 µM
- GI50 [5]: 0.473 µM
- TGI [5]: 34 µM
- GI50 [6]: 0.374 µM
- TGI [6]: > 46.5 µM
- GI50 [7]: 3.24 µM
- TGI [7]: > 67.3 µM
- GI50 [8]: 1.48 µM
- TGI [8]: > 100 µM
- GI50 [9]: 0.509 µM
- TGI [9]: > 100 µM
- GI50 [10]: 0.365 µM
- TGI [10]: 2.24 µM

Structure (SMILES): CCN(CC)CC(O)C1CCC(c2ccccc2)CC1 (centres undefined)
- TGI [1]: > 100 µM
- TGI [2]: 57.5 µM
- TGI [3]: 39 µM
- TGI [4]: > 100 µM
- TGI [5]: 62.7 µM
- TGI [6]: 82.6 µM
- TGI [7]: 37.4 µM
- TGI [8]: 32.3 µM
- TGI [9]: 86.9 µM
- TGI [10]: 30.4 µM

Structure (SMILES): COC(=O)c1ccc(C2SCC(=O)N2NC(=O)C(O)c2ccccc2)cc1 (centres undefined)
- GI50 [1]: > 100 µM
- TGI [1]: > 100 µM
- GI50 [2]: > 100 µM
- TGI [2]: > 100 µM
- GI50 [3]: > 100 µM
- TGI [3]: > 100 µM
- GI50 [4]: > 100 µM
- TGI [4]: > 100 µM
- GI50 [5]: > 100 µM
- TGI [5]: > 100 µM
- GI50 [6]: > 100 µM
- TGI [6]: > 100 µM
- GI50 [7]: > 100 µM
- TGI [7]: > 100 µM
- GI50 [8]: > 100 µM
- TGI [8]: > 100 µM
- GI50 [9]: > 100 µM
- TGI [9]: > 100 µM
- GI50 [10]: > 100 µM
- TGI [10]: > 100 µM
